Data reported in publication PMC5400565, “Real-time near-infrared fluorescence imaging using cRGD-ZW800-1 for intraoperative visualization of multiple cancer types” (Oncotarget, 2017).

Tests used:
[1] = biological target: T1, Dopamine transporter (Homo sapiens, UniProt Q01959); assay: Off-target screening (Eurofins Cerep), dopamine transporter; assay type: binding
T1 construct: Eurofins Cerep SA (contract screening)

[2] = biological target: T2, cyclooxygenase-2 (COX-2) (Homo sapiens, UniProt P35354); assay: Off-target screening (Eurofins Cerep), COX2; assay type: biochemical
T2 construct: Eurofins Cerep SA (contract screen)
T2 sequence (P35354 18-604): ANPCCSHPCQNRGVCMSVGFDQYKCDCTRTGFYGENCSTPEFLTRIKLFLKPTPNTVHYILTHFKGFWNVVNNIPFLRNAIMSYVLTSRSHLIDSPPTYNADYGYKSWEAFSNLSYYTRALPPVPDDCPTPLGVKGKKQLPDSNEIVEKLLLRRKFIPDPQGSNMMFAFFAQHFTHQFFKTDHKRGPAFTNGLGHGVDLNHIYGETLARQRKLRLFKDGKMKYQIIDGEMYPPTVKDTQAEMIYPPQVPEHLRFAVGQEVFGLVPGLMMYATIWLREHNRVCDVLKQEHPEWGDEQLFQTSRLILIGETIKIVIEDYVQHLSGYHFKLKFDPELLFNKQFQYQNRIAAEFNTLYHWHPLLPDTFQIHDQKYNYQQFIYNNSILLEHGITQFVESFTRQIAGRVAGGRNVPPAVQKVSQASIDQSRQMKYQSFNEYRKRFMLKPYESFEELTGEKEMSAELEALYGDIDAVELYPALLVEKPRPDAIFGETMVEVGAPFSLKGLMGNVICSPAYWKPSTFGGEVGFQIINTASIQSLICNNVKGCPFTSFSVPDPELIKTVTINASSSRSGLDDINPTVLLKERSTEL

[3] = biological target: T3, Muscarinic M2 (Homo sapiens, UniProt P08172); assay: Off-target screening (Eurofins Cerep), M2; assay type: binding
T3 construct: Eurofins Cerep SA (contract screening)
T3 sequence (P08172 whole entry): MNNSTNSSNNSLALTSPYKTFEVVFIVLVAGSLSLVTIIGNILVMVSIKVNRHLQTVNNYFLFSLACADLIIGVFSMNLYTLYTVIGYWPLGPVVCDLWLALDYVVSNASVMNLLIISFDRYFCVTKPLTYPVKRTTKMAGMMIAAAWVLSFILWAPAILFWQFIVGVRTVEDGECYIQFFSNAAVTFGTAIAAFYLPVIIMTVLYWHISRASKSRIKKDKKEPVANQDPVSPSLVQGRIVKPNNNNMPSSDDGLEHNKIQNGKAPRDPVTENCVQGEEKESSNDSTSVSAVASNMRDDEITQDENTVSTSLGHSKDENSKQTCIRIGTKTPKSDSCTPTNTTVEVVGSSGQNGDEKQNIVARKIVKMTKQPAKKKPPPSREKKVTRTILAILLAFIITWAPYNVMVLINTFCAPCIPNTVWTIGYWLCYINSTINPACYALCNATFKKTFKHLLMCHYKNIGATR

[4] = test system: HT-29 cells; assay: In vitro competition with unlabeled cRGD, HT-29; assay type: cell-based, human; details: 500 nM cRGD-ZW800-1 + 500 nM unlabeled cRGD (1:1), 37°C, 2 h, vs cells without unlabeled cRGD, triplicate
Method: For in vitro competition, U-87 MG (αvβ3 and αvβ5 positive, αvβ6 negative) and HT-29 (αvβ3 negative, αvβ5 and αvβ6 positive) cells were plated in a 96-well plate at a density of ∼40,000 and ∼60,000 cells per well, respectively. Subsequently, 500 nM of cRGD-ZW800-1 was simultaneously added to the cells and incubated at 37°C for 2 h. At the same time, half of the cells were also incubated with 500 nM unlabeled (“cold”) cRGD.
Both the cells in the binding and the competition experiment were then washed twice and imaged with the Odyssey NIR scanner (LI-COR Biosciences, Lincoln, Nebraska: focus offset 3 mm; 800-nm channel). Next, cells were permeabilized with a 40/60 mixture of acetone and methanol followed by a washing step and a 5 min incubation with ToPro3 (1/2000, Invitrogen), a far red fluorescent dye (642/661nm). The wells were then washed and again imaged with the Odyssey scanner (focus offset 3 mm; 700-nm channel) to quantify the number of cells in each well. The experiments were performed in triplicate.

[5] = biological target: T4, Nicotinic channels N neuronal α4β2 (Homo sapiens, UniProt P17787+P43681); assay: Off-target screening (Eurofins Cerep), N neuronal α4β2; assay type: binding
T4 construct: Eurofins Cerep SA (contract screen)
T4 sequence (P43681 29-627 limits assumed): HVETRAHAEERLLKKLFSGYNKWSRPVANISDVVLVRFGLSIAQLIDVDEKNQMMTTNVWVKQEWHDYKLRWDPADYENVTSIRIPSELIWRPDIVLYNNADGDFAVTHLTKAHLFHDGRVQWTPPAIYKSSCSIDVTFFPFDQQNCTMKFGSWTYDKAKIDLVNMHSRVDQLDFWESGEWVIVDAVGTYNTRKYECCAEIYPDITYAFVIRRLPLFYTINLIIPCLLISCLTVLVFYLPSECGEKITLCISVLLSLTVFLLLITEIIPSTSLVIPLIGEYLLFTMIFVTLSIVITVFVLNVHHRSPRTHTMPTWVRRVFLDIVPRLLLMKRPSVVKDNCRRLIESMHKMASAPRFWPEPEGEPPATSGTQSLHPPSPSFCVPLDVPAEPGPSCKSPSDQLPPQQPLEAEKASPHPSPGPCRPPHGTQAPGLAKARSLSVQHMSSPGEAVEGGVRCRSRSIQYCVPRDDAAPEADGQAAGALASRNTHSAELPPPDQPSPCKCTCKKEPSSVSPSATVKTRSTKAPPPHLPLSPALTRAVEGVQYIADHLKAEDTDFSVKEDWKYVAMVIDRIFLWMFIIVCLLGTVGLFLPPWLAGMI
T4 sequence (P17787 26-502): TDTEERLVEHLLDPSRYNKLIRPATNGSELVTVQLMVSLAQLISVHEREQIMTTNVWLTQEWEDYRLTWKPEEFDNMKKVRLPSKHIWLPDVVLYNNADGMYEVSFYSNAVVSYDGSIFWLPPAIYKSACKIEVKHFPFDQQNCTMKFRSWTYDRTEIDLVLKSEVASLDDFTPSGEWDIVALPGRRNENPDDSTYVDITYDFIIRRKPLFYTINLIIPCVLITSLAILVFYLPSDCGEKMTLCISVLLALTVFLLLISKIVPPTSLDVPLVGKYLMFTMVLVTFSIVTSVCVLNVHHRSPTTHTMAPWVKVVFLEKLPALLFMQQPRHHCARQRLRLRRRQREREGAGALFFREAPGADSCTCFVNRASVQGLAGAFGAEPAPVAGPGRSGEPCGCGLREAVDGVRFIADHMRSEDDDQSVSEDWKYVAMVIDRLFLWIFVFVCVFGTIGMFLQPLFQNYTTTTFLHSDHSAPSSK

[6] = biological target: T5, Opioid δ (DOP) (Homo sapiens, UniProt P41143); assay: Off-target screening (Eurofins Cerep), δ (DOP); assay type: binding
T5 construct: Eurofins Cerep SA (contract screening)
T5 sequence (P41143 whole entry): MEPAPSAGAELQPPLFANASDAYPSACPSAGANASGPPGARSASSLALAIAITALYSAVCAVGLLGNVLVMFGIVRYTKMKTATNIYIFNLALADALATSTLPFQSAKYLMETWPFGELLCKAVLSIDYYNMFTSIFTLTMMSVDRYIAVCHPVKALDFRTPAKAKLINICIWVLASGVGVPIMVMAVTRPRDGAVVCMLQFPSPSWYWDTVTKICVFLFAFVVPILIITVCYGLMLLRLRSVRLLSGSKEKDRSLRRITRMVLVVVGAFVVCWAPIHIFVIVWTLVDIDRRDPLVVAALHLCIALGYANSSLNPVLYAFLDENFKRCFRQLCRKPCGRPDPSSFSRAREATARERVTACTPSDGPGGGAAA

[7] = biological target: T6, Histamine H1 (Homo sapiens, UniProt P35367); assay: biochemical; assay type: binding
T6 construct: Eurofins Cerep SA (contract screening)
T6 sequence (P35367 whole entry): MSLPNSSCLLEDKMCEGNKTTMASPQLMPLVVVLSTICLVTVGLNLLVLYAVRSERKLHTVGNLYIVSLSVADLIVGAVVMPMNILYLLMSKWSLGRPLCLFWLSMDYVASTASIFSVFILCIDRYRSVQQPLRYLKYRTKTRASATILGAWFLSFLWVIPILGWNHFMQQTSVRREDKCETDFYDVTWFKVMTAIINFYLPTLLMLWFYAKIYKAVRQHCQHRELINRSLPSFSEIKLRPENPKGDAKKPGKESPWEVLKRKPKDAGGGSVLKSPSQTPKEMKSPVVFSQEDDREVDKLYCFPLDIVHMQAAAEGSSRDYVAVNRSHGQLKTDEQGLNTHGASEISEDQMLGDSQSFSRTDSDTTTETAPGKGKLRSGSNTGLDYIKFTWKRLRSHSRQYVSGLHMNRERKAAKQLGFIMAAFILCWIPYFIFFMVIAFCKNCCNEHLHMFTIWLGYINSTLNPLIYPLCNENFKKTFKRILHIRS

[8] = Toxicology study in rats (unpublished data)
[9] = biological target: T7, GR (steroid nuclear receptor) (Homo sapiens, UniProt P04150); assay: Off-target screening (Eurofins Cerep), GR; assay type: binding
T7 construct: Eurofins Cerep SA (contract screen)
T7 sequence (P04150 whole entry): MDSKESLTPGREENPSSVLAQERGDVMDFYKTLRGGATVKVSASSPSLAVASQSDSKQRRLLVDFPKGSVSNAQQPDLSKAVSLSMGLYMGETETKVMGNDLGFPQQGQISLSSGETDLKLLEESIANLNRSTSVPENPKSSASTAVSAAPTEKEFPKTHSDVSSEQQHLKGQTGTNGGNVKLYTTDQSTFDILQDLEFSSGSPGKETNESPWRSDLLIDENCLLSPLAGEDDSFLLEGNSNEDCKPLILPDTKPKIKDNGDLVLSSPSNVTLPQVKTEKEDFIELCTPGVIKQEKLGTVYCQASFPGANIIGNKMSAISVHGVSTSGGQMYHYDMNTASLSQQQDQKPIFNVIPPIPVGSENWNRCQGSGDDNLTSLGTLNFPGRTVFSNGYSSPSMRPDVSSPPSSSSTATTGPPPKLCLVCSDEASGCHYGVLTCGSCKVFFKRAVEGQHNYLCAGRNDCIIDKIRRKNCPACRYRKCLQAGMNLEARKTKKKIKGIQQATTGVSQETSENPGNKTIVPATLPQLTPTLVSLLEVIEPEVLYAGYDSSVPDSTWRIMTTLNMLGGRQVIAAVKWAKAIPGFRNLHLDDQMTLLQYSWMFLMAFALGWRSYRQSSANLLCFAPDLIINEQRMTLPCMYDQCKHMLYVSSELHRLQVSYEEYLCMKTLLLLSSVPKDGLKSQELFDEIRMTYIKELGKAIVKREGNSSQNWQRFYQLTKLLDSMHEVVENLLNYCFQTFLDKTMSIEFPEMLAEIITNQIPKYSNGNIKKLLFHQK

[10] = 10 μM cRGD-ZW800-1, format H, An, performed twice, read-out: % Inhibition of Control Specific Binding
[11] = 10 μM, mean of 2, read-out: % of Control Specific Binding Mean
[12] = 10 μM cRGD-ZW800-1, format H, Ag, performed twice, read-out: % Inhibition of Control Specific Binding

T1 sequence (Q01959 whole entry): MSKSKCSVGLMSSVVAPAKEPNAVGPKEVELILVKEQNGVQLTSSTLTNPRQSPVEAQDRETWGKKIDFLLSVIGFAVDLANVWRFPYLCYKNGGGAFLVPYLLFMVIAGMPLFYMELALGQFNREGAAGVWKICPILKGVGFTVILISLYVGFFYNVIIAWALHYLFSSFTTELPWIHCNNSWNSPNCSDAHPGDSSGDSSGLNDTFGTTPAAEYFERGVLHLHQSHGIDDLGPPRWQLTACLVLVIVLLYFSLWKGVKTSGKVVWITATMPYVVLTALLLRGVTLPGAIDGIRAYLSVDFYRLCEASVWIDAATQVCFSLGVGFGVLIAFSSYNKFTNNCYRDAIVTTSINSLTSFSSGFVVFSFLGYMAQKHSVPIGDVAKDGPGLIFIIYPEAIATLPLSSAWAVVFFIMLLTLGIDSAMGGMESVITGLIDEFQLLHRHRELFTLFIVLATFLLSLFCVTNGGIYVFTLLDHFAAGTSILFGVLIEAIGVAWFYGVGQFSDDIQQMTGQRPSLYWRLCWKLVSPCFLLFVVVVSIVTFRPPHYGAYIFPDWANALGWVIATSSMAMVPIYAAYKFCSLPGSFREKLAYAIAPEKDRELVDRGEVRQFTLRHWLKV

Structure (SMILES): CC1(C)C(/C=C/C2=C(Oc3ccc(CCC(=O)NCCCC[C@@H]4NC(=O)[C@@H](Cc5ccc(O)cc5)NC(=O)[C@H](CC(=O)O)NC(=O)CNC(=O)[C@H](CCCNC(=N)N)NC4=O)cc3)C(=C/C=C3/N(CCC[N+](C)(C)C)c4ccc(S(=O)(=O)O)cc4C3(C)C)/CCC2)=[N+](CCC[N+](C)(C)C)c2ccc(S(=O)(=O)O)cc21 [cRGD-ZW800-1]
- inhibition at 10 µM [1, 10]: 5%
- remaining activity at 10 µM [1, 11]: 95%
- inhibition at 10 µM ([2]; 10 μM cRGD-ZW800-1, format H, performed twice, read-out: % Inhibition of Control Specific Binding): 62%
- remaining activity at 10 µM [2, 11]: 38%
- inhibition at 10 µM [3, 10]: -20%
- remaining activity at 10 µM [3, 11]: 120%
- reduction of fluorescence signal by unlabeled cRGD [4]: 32%
- inhibition at 10 µM [5, 12]: -11%
- remaining activity at 10 µM [5, 11]: 111%
- inhibition at 10 µM [6, 12]: 14%
- remaining activity at 10 µM [6, 11]: 85.5%
- inhibition at 10 µM ([7]; read-out: % Inhibition of Control Specific Binding): -5%
- remaining activity at 10 µM ([7]; read-out: % of Control Specific Binding Mean): 105%
- safe starting dose for first in-human studies ([8]; 10% of the HED of the NOAEL (FDA recommendation)): 0.08 mg/kg
- human equivalent dose (HED) of the NOAEL ([8]; NOAEL of 5.0 mg/kg in rats adjusted for body surface area): 0.80 mg/kg
- toxicology findings ([8]; rats, intravenous injection of 5.0 mg/kg, unpublished data): neither clinical symptoms, nor treatment-related histopathological, biochemical, and hematological abnormalities
- no observable adverse event level (NOAEL) ([8]; rats, intravenous injection, unpublished data): at least 5.0 mg/kg
- inhibition at 10 µM [9, 12]: 10%
- remaining activity at 10 µM [9, 11]: 89.9%
